According to patent US8618082B2, “Lupeol anti-tumor agent and uses thereof” (Wisconsin Alumni Research Foundation, priority 2004, dated 2013):
Entries after “also recorded” stand apart in the source; their conditions may differ. Marks after values point to notes of the source that are not given here.

Assays:
CD-1 mouse skin [1] = assay type: in vivo
Experimental: FIG. 8. Two stage carcinogenesis tumor data in CD-1 mice: Inhibitory effect of Lupeol on DMBA-initiated and TPA-promoted tumor formation in CD-1 mice: In each group, 20 animals were used. Tumorigenesis was initiated in the animals by a single topical application of 200 nmol DMBA in 0.2 ml vehicle on the dorsal shaved skin, and 1 week later, the tumor growth was promoted with twice-weekly applications of 3.2 nmol TPA in 0.2 ml vehicle. To assess its anti-skin tumor-promoting effect, Lupeol at a dose of 2 mg/animal was applied topically 30 min prior to each TPA application in different groups. Treatment with TPA alone or Lupeol plus TPA was repeated twice weekly up to the termination of the experiments at 28 weeks. Animals in all the groups were watched for any apparent signs of toxicity, such as weight loss or mortality during the entire period of study. Skin tumor formation was recorded weekly, and tumors larger than 1 mm in diameter were included in the cumulative number only if they persisted for 2 weeks or more. The tumor data is represented as the percentage of mice with tumors (a), the number of tumors per mouse (b) and the number of tumors per group (c). The data was analyzed by Wilcoxon rank sum test and χ^2 analysis.
Female CD-1 mice were used in DMBA- and TPA-induced, two-stage skin tumorigenesis protocol as described earlier (Katiyar et al., 1996). The dorsal side of the skin was shaved using electric clippers, and the mice with hair cycles in the resting phase were used for tumor studies. In each group, 20 animals were used. Tumorigenesis was initiated in the animals by a single topical application of 200 nmol DMBA in 0.2 ml vehicle on the dorsal shaved skin, and 1 week later, the tumor growth was promoted with twice-weekly applications of 3.2 nmol TPA in 0.2 ml vehicle. […] Treatment with TPA alone or Lupeol plus TPA was repeated twice weekly up to the termination of the experiments at 28 weeks. Animals in all the groups were watched for any apparent signs of toxicity, such as weight loss or mortality during the entire period of study. Skin tumor formation was recorded weekly, and tumors larger than 1 mm in diameter were included in the cumulative number only if they persisted for 2 weeks or more.
A two-tailed Student's t test was used to assess the statistical significance between the TPA treated and Lupeol+TPA treated groups. A p value<0.05 was considered statistically significant. In tumorigenesis experiments, the statistical significance of difference between TPA and Lupeol+TPA groups was evaluated by the Wilcoxon rank sum test and χ^2 analysis.

[2] = test system: PARP, acinus, Bcl2, Bax, Caspase 7 in LNCaP cells; test: PARP cleavage and apoptosis protein expression in LNCaP cells (western blot); assay type: cell-based, human
Experimental: FIG. 12 depicts effect of Lupeol treatment on PARP cleavage and on protein expression of acinus, in LNCaP cells. Cells were treated with specified concentrations of Lupeol for 48 h, harvested and total cell lysates were prepared. PARP cleavage and the expression of acinus, were determined by western blot analysis. Equal loading was confirmed by stripping immunoblots and reprobing them for β-actin. The immunoblots shown here are representative of three independent experiments with similar results.

CD-1 mouse skin [3] = test: TPA-induced epidermal hyperplasia (hematoxylin and eosin histology); assay type: in vivo
Experimental: FIG. 2. Inhibitory effect of Lupeol on TPA-induced hyperplasia in CD-1 mice: 24 and 48 h after treatment, the animals were sacrificed; skin biopsies were processed for hematoxylin and eosin staining. Representative pictures are shown.
The effect of topical application of Lupeol on TPA-mediated induction of epidermal hyperplasia was then assessed.
The animals were shaved on the dorsal side of the skin, divided into four groups and treated topically on the shaved area with either 0.4 ml vehicle (acetone), or TPA (3.2 nmol/0.4 ml acetone/animal, v/v), or Lupeol (1 or 2 mg/0.2 ml acetone/animal, w/v) followed 30 min later with TPA (3.2 nmol/0.2 ml acetone/animal). Animals were sacrificed at different times point i.e. 6, 12, 24 and 48 h post TPA treatment. The epidermis was separated from the whole skin and homogenized in 0.1 M Tris-HCl buffer (pH 7.2) using a Polytron tissue homogenizer (Brinkmann Instruments, Westbury, N.Y., USA) at 100,000×g supernatant, and microsomal fractions were prepared as described earlier (Katiyar and Mukhtar, 1997). […]
To assess the inhibitory effect of pre-application of Lupeol on TPA-induced edema, 1 cm-diameter punches of skin from vehicle-, Lupeol-, TPA- or Lupeol- and TPA-treated mice were removed, made free of fat pads, and weighed immediately. After drying for 24 h at 50° C., the skin punches were reweighed, and the loss of water content was determined. […]

CD-1 mouse skin [4] = test: TPA-induced cutaneous edema, skin punch weight; assay type: in vivo; settings: for protection against TPA-induced skin edema: dose not stated, p<0.01
Experimental: Studies from the inventors' laboratory and by other have shown that TPA application to mouse skin results in cutaneous edema (Katiyar et at, 1996; Liang et at, 2002). In the present study, the inventors evaluated the protective effects of topical application of Lupeol in TPA-mediated cutaneous edema in CD-1 mouse. The inventors tested four doses 0.25, 0.5, 1 and 2 mg of Lupeol per animal in the inventors' preliminary studies. […] The CD-1 mice were topically treated with Lupeol (1 and 2 mg/mouse) and 30 min later were topically treated with TPA (3.2 nmole/mouse). […] At least four determinations were made at different dorsal skin sites per mouse in each group. The data represents the mean±SE of eight mice (*p<0.01 vs TPA).
The animals were shaved on the dorsal side of the skin, divided into four groups and treated topically on the shaved area with either 0.4 ml vehicle (acetone), or TPA (3.2 nmol/0.4 ml acetone/animal, v/v), or Lupeol (1 or 2 mg/0.2 ml acetone/animal, w/v) followed 30 min later with TPA (3.2 nmol/0.2 ml acetone/animal). Animals were sacrificed at different times point i.e. 6, 12, 24 and 48 h post TPA treatment. The epidermis was separated from the whole skin and homogenized in 0.1 M Tris-HCl buffer (pH 7.2) using a Polytron tissue homogenizer (Brinkmann Instruments, Westbury, N.Y., USA) at 100,000×g supernatant, and microsomal fractions were prepared as described earlier (Katiyar and Mukhtar, 1997). The sample of 6 h treatment group was used to assess the ODC activity as this time point has previously been shown for optimal induction of the enzyme (Katiyar er al., 1996).
To assess the inhibitory effect of pre-application of Lupeol on TPA-induced edema, 1 cm-diameter punches of skin from vehicle-, Lupeol-, TPA- or Lupeol- and TPA-treated mice were removed, made free of fat pads, and weighed immediately. After drying for 24 h at 50° C., the skin punches were reweighed, and the loss of water content was determined. The difference in the amount of water gain between the control (vehicle treated) and TPA treated represented the extent of edema induced by TPA, whereas that between the control vehicle and Lupeol plus TPA represented the inhibitory effect of Lupeol. For the hyperplasia study, skin was removed, fixed in 10% formalin, and embedded in paraffin. Vertical sections (5 μm) were cut, mounted on a glass slide, and stained with hematoxylin and eosin.

[5] = Lupeol 2 mg/animal, 28 weeks, vs non-Lupeol treated group
[6] = Lupeol alone (2 mg), topical, no TPA, mean±SE of eight mice
[7] = TPA + Lupeol (1 mg), Lupeol topical 30 min before TPA
[8] = TPA + Lupeol (2 mg), Lupeol topical 30 min before TPA

Q: Which results are given for C=C(C)[C@@H]1CC[C@]2(C)CC[C@]3(C)[C@H](CC[C@@H]4[C@@]5(C)CC[C@H](O)C(C)(C)[C@@H]5CC[C@]43C)[C@@H]12 [Lupeol, Lup-20(29)-en-3β-ol]?
A: percentage of mice with skin tumors (CD-1 mouse skin [1]; Lupeol 2 mg/animal topical 30 min prior to each TPA, 28 weeks, non-Lupeol group 100%): 53%; total number of tumors per group (CD-1 mouse skin [1]; Lupeol 2 mg/animal, 28 weeks, 20 animals, non-Lupeol group 125): 33 tumors; inhibition of number of tumors per mouse (CD-1 mouse skin [1]; [5]): 74%; inhibition of total number of tumors (CD-1 mouse skin [1]; [5]): 74%; number of tumors per mouse (CD-1 mouse skin [1]; Lupeol 2 mg/animal, 28 weeks, non-Lupeol group 6.25): 1.65 tumors per mouse; latency period of tumor formation (CD-1 mouse skin [1]; Lupeol 2 mg/animal, p<0.05, χ2 test): significantly increased; body weight gain (CD-1 mouse skin [1]; Lupeol treatment for 28 weeks, data not shown): did not significantly affect; signs of toxicity (CD-1 mouse skin [1]; mouse, in vivo): none of the treated mice exhibited any signs of toxicity; Bcl2, Bax and Caspase 7 protein expression [2]: no change; cleavage of PARP and Acinus protein ([2]; 48 hours): induce the cleavage of PARP protein and degradation of Acinus protein; also recorded: induced cleavage of PARP and Acinus protein; epidermal hyperplasia after Lupeol alone (CD-1 mouse skin [3]; Lupeol alone): did not induce any epidermal hyperplasia; induction of epidermal hyperplasia by TPA (CD-1 mouse skin [3]; topical Lupeol prior to TPA, 24 and 48 h): resulted in inhibition in the induction of epidermal hyperplasia; protection against TPA-induced skin edema (CD-1 mouse skin [4]; 24 h post-treatment): 48%; protection against TPA-induced skin edema (CD-1 mouse skin [4]; 48 h post-treatment): 43%; Skin punch weight 24 hrs (CD-1 mouse skin [4]; [6]): 13.5 ± 1.5 mg/cm2; Skin punch weight 48 hrs (CD-1 mouse skin [4]; [6]): 15.5 ± 1.5 mg/cm2; % protection 24 hrs (CD-1 mouse skin [4]; TPA + Lupeol (1 mg)): 53%; % protection 48 hrs (CD-1 mouse skin [4]; TPA + Lupeol (1 mg)): 52%; Skin punch weight 24 hrs (CD-1 mouse skin [4]; [7]): 18.5 ± 1.0* mg/cm2; Skin punch weight 48 hrs (CD-1 mouse skin [4]; [7]): 20.0 ± 1.0* mg/cm2; % protection 24 hrs (CD-1 mouse skin [4]; TPA + Lupeol (2 mg)): 79%; % protection 48 hrs (CD-1 mouse skin [4]; TPA + Lupeol (2 mg)): 85%; Skin punch weight 24 hrs (CD-1 mouse skin [4]; [8]): 16.0 ± 1.5* mg/cm2; Skin punch weight 48 hrs (CD-1 mouse skin [4]; [8]): 16.5 ± 0.75* mg/cm2; skin edema after Lupeol alone (CD-1 mouse skin [4]; topical Lupeol alone, 24 and 48 h post treatment): did not result in an increase in skin edema
